# Measured values published in patent US20100099561A1, “HETEROBICYCLIC ALKYLTHIO-BRIDGED ISOXAZOLINES” (E.I. DU PONT DE NEMOURS AND COMPANY, priority 2008, published 2010).
# Tests used:
# Format in all cases: in vivo
# [1] = tested on: velvetleaf (Abutilon theophrasti); test: Test B preemergence, velvetleaf; conditions: Preemergence, scale 0 to 100
# Excerpt: (§1) Seeds of plant species selected from blackgrass (Alopecurus myosuroides), downy bromegrass (Bromus tectorum), green foxtail (Setaria viridis), Italian ryegrass (Lolium multiflorum), wheat (Triticum aestivum), wild oat (Avena fatua), catchweed bedstraw (Galium aparine), bermudagrass (Cynodon dactylon), Surinam grass (Brachiaria decumbens), cocklebur (Xanthium strumarium), corn (Zea mays), large crabgrass (Digitaria sanguinalis), woolly cupgrass (Eriochloa villosa), giant foxtail (Setaria faberii), goosegrass (Eleusine indica), johnsongrass (Sorghum halepense), kochia (Kochia scoparia), lambsquarters (Chenopodium album), morningglory (Ipomoea coccinea), nightshade (eastern black nightshade, Solanum ptycanthum), yellow nutsedge (Cyperus esculentus), pigweed (Amaranthus retroflexus), ragweed (common ragweed, Ambrosia elatior), soybean (Glycine max), sunflower (common oilseed sunflower, Helianthus annuus), Russian thistle (Salsola kali), and velvetleaf (Abutilon theophrasti) were planted into a blend of loam soil and sand and treated preemergence with test compounds formulated in a non-phytotoxic solvent mixture which included a surfactant. Treated plants and controls were maintained in a greenhouse for 13 to 15 days, after which time all species were compared to controls and visually evaluated. Plant response ratings, summarized in Table B, are based on a scale of 0 to 100 where 0 is no effect and 100 is complete control. A dash (-) response means no test result.
# [2] = tested on: lambsquarters (Chenopodium album); test: Test B preemergence, lambsquarters; conditions: scale 0 to 100
# Excerpt: as §1
# [3] = tested on: downy bromegrass (Bromus tectorum); test: Test B preemergence, downy bromegrass; conditions: scale 0 to 100
# Excerpt: as §1
# [4] = tested on: nightshade (eastern black nightshade, Solanum ptycanthum); test: Test B preemergence, nightshade; conditions: scale 0 to 100
# Excerpt: as §1
# [5] = tested on: velvetleaf (Abutilon theophrasti); test: Test A postemergence, velvetleaf; conditions: 0 to 100 scale (0 no effect, 100 complete control)
# Method in brief: (§2)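 Pre: directed soil spray after sowing in loam/sand. Post: seedlings at 1–2 leaf stage, 2–10 cm. Vehicle: non-phytotoxic solvent mix + surfactant. Greenhouse ~10 d; visual injury 0–100 vs untreated controls.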
# corn (Zea mays) [6] = test: Test B preemergence, corn; conditions: scale 0 to 100
# Excerpt: as §1
# corn (Zea mays) [7] = test: Test A preemergence, corn; conditions: 0 to 100 scale (0 no effect, 100 complete control)
# Method in brief: as §2
# [8] = tested on: yellow nutsedge (Cyperus esculentus); test: Test B preemergence, yellow nutsedge; conditions: scale 0 to 100
# Excerpt: as §1
# [9] = tested on: wheat (Triticum aestivum); test: Test A postemergence, wheat; conditions: 0 to 100 scale (0 no effect, 100 complete control)
# Method in brief: as §2
# rice (Oryza sativa) = test: Test B flooded paddy test, rice; conditions: Flood, scale 0 to 100
# Method in brief: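 Step one: raise plants to 2 leaves. Step two: flood pots 3 cm over the soil and apply compound into the water, keeping this depth. Step three: after 13–15 greenhouse days, score visually versus controls, 0–100, where 100 means complete control.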
# [10] = tested on: morningglory (Ipomoea coccinea); test: Test B preemergence, morningglory; conditions: scale 0 to 100
# Excerpt: as §1
# [11] = tested on: giant foxtail (Setaria faberi); test: Test A postemergence, giant foxtail; conditions: 0 to 100 scale (0 no effect, 100 complete control)
# Method in brief: as §2
# [12] = tested on: pigweed (Amaranthus retroflexus); test: Test A postemergence, pigweed; conditions: 0 to 100 scale (0 no effect, 100 complete control)
# Method in brief: as §2
# soybean (Glycine max) = test: Test B preemergence, soybean; conditions: Preemergence, scale 0 to 100
# Excerpt: as §1
# [13] = tested on: large crabgrass (Digitaria sanguinalis); test: Test B preemergence, large crabgrass; conditions: scale 0 to 100
# Excerpt: as §1
# [14] = tested on: large crabgrass (Digitaria sanguinalis); test: Test A preemergence, large crabgrass; conditions: 0 to 100 scale (0 no effect, 100 complete control)
# Method in brief: as §2
# [15] = tested on: wheat (Triticum aestivum); test: Test A preemergence, wheat; conditions: 0 to 100 scale (0 no effect, 100 complete control)
# Method in brief: as §2
# [16] = tested on: large crabgrass (Digitaria sanguinalis); test: Test A postemergence, large crabgrass; conditions: 0 to 100 scale (0 no effect, 100 complete control)
# Method in brief: as §2
# [17] = tested on: barnyardgrass (Echinochloa crus-galli); test: Test A postemergence, barnyardgrass; conditions: 0 to 100 scale (0 no effect, 100 complete control)
# Method in brief: as §2
# [18] = tested on: blackgrass (Alopecurus myosuroides); test: Test B preemergence, blackgrass; conditions: scale 0 to 100
# Excerpt: as §1
structure (smiles),measurement,setting,value
"CC1(C)CC(S(=O)(=O)Cc2c(C(F)(F)F)nc3n(c2=O)CCC3)=NO1 [Compound 11, 3-[[(4,5-dihydro-5,5-dimethyl-3-isoxazolyl)sulfonyl]methyl]-7,8-dihydro-2-(trifluoromethyl)pyrrolo[1,2-α]pyrimidin-4(6H)-one]","Plant response rating, Velvetleaf",[1]; 16 g ai/ha,0
same,"Plant response rating, Velvetleaf",[1]; 31 g ai/ha,0
same,"Plant response rating, Velvetleaf",[1]; 62 g ai/ha,0
same,"Plant response rating, Velvetleaf",[1]; 125 g ai/ha,65
same,"Plant response rating, Lambsquarters",[2]; 16 g ai/ha,0
same,"Plant response rating, Lambsquarters",[2]; 31 g ai/ha,0
same,"Plant response rating, Lambsquarters",[2]; 62 g ai/ha,0
same,"Plant response rating, Lambsquarters",[2]; 125 g ai/ha,100
same,"Plant response rating, Bromegrass, Downy",[3]; 16 g ai/ha,0
same,"Plant response rating, Bromegrass, Downy",[3]; 31 g ai/ha,0
same,"Plant response rating, Bromegrass, Downy",[3]; 62 g ai/ha,0
same,"Plant response rating, Bromegrass, Downy",[3]; 125 g ai/ha,65
same,"Plant response rating, Nightshade",[4]; 16 g ai/ha,0
same,"Plant response rating, Nightshade",[4]; 31 g ai/ha,60
same,"Plant response rating, Nightshade",[4]; 62 g ai/ha,95
same,"Plant response rating, Nightshade",[4]; 125 g ai/ha,98
same,"Plant response rating, Velvetleaf",[5]; 125 g ai/ha,50
same,"Plant response rating, Velvetleaf",[5]; 500 g ai/ha,80
same,"Plant response rating, Corn",corn (Zea mays) [6]; 16 g ai/ha,0
same,"Plant response rating, Corn",corn (Zea mays) [6]; 31 g ai/ha,0
same,"Plant response rating, Corn",corn (Zea mays) [6]; 62 g ai/ha,0
same,"Plant response rating, Corn",corn (Zea mays) [6]; 125 g ai/ha,0
same,"Plant response rating, Corn",corn (Zea mays) [7]; 125 g ai/ha,0
same,"Plant response rating, Corn",corn (Zea mays) [7]; 500 g ai/ha,0
same,"Plant response rating, Nutsedge, Yellow",[8]; 16 g ai/ha,0
same,"Plant response rating, Nutsedge, Yellow",[8]; 31 g ai/ha,0
same,"Plant response rating, Nutsedge, Yellow",[8]; 62 g ai/ha,0
same,"Plant response rating, Nutsedge, Yellow",[8]; 125 g ai/ha,0
same,"Plant response rating, Wheat",[9]; 125 g ai/ha,20
same,"Plant response rating, Wheat",[9]; 500 g ai/ha,60
same,"Plant response rating, Rice",rice (Oryza sativa); 31 g ai/ha,0
same,"Plant response rating, Rice",rice (Oryza sativa); 62 g ai/ha,0
same,"Plant response rating, Rice",rice (Oryza sativa); 125 g ai/ha,25
same,"Plant response rating, Rice",rice (Oryza sativa); 250 g ai/ha,25
same,"Plant response rating, Morningglory",[10]; 16 g ai/ha,0
same,"Plant response rating, Morningglory",[10]; 31 g ai/ha,65
same,"Plant response rating, Morningglory",[10]; 62 g ai/ha,80
same,"Plant response rating, Morningglory",[10]; 125 g ai/ha,95
same,"Plant response rating, Foxtail, Giant",[11]; 125 g ai/ha,80
same,"Plant response rating, Foxtail, Giant",[11]; 500 g ai/ha,80
same,"Plant response rating, Pigweed",[12]; 125 g ai/ha,30
same,"Plant response rating, Pigweed",[12]; 500 g ai/ha,70
same,"Plant response rating, Soybean",soybean (Glycine max); 16 g ai/ha,0
same,"Plant response rating, Soybean",soybean (Glycine max); 31 g ai/ha,0
same,"Plant response rating, Soybean",soybean (Glycine max); 62 g ai/ha,0
same,"Plant response rating, Soybean",soybean (Glycine max); 125 g ai/ha,0
same,"Plant response rating, Crabgrass, Large",[13]; 16 g ai/ha,65
same,"Plant response rating, Crabgrass, Large",[13]; 31 g ai/ha,85
same,"Plant response rating, Crabgrass, Large",[13]; 62 g ai/ha,100
same,"Plant response rating, Crabgrass, Large",[13]; 125 g ai/ha,100
same,"Plant response rating, Crabgrass, Large",[14]; 125 g ai/ha,80
same,"Plant response rating, Crabgrass, Large",[14]; 500 g ai/ha,90
same,"Plant response rating, Wheat",[15]; 125 g ai/ha,0
same,"Plant response rating, Wheat",[15]; 500 g ai/ha,60
same,"Plant response rating, Crabgrass, Large",[16]; 125 g ai/ha,80
same,"Plant response rating, Crabgrass, Large",[16]; 500 g ai/ha,90
same,"Plant response rating, Barnyardgrass",[17]; 125 g ai/ha,80
same,"Plant response rating, Barnyardgrass",[17]; 500 g ai/ha,90
same,"Plant response rating, Blackgrass",[18]; 16 g ai/ha,0
same,"Plant response rating, Blackgrass",[18]; 31 g ai/ha,70
same,"Plant response rating, Blackgrass",[18]; 62 g ai/ha,70
same,"Plant response rating, Blackgrass",[18]; 125 g ai/ha,100
